This passage reports IC50 results from BindingDB's records for doi:10.1016/s0960-894x(99)00014-1 (Zeria Pharmaceutical, 1999).

The nature of this assay: In vitro thromboxane A2 antagonistic activity on aggregation of rabbit platelets induced by U-46,619 (4 uM).
In the case of `O=C(O)Cc1ccc2c(c1)CC(CCNS(=O)(=O)c1ccc(Cl)cc1)C2` (stereo unspecified) [Sodium; {2-[2-(4-chloro-benzenesulfonylamino)-ethyl]-indan-5-yl}-acetate], the IC50 was 1480 nM.
As for `O=C(O)Cc1ccc2c(c1)CC(CNS(=O)(=O)C1CCCCC1)C2` (stereo unspecified) [Sodium; [2-(cyclohexanesulfonylamino-methyl)-indan-5-yl]-acetate], the figure is 17800 nM; as for `O=C(O)Cc1ccc2c(c1)CC(NS(=O)(=O)c1ccc(Cl)cc1)C2` (stereo unspecified) [Sodium; [2-(4-chloro-benzenesulfonylamino)-indan-5-yl]-acetate], 360 nM.
The compound `O=C(O)Cc1ccc2c(c1)CC(CNS(=O)(=O)Cc1ccccc1)C2` (stereo unspecified) [Sodium; [2-(phenylmethanesulfonylamino-methyl)-indan-5-yl]-acetate] registered a concentration for half-maximal inhibition (IC50) above 100000 nM.
As for `O=C(O)Cc1ccc2c(c1)CC(CCCNS(=O)(=O)c1ccc(Cl)cc1)C2` (stereo unspecified) [Sodium; {2-[3-(4-chloro-benzenesulfonylamino)-propyl]-indan-5-yl}-acetate], the figure is 72300 nM.
`O=C(O)Cc1ccc2c(c1)CC(CNS(=O)(=O)c1ccc(Cl)cc1)O2` (stereo unspecified) [Sodium; {2-[(4-chloro-benzenesulfonylamino)-methyl]-2,3-dihydro-benzofuran-5-yl}-acetate] gave a 50% inhibitory concentration (IC50) of 320 nM.
As to `O=C(O)Cc1ccc2c(c1)CC(CNS(=O)(=O)c1cccs1)C2` (stereo unspecified) [Sodium; {2-[(thiophene-2-sulfonylamino)-methyl]-indan-5-yl}-acetate], the IC50 was 2810 nM.
Compound `O=C(O)c1ccc2c(c1)CC(CCNS(=O)(=O)c1ccc(Cl)cc1)C2` (stereo unspecified) [Sodium; 2-[2-(4-chloro-benzenesulfonylamino)-ethyl]-indan-5-carboxylate] gave an IC50 of 7760 nM.
`O=C(O)c1ccc2c(c1)CC(CCCNS(=O)(=O)c1ccc(Cl)cc1)C2` (stereo unspecified) [Sodium; 2-[3-(4-chloro-benzenesulfonylamino)-propyl]-indan-5-carboxylate] displayed an IC50 of 6600 nM.
`O=C(O)c1ccc2c(c1)CC(CNS(=O)(=O)c1ccc(Cl)cc1)C2` (stereo unspecified) [Sodium; 2-[(4-chloro-benzenesulfonylamino)-methyl]-indan-5-carboxylate]: the midpoint of inhibition, the IC50, lay at 1320 nM.
For the compound `O=C(O)Cc1ccc2c(c1)CC(CNS(=O)(=O)c1cccc3ccccc13)C2` (stereo unspecified) [Sodium; {2-[(naphthalene-1-sulfonylamino)-methyl]-indan-5-yl}-acetate], the IC50 came to 47900 nM.
`O=C(O)CCc1ccc2c(c1)CC(CNS(=O)(=O)c1ccc(Cl)cc1)C2` (stereo unspecified) [Sodium; 3-{2-[(4-chloro-benzenesulfonylamino)-methyl]-indan-5-yl}-propionate] yielded an IC50 of 160 nM.
On to `O=C(O)Cc1ccc2c(c1)CC(CNS(=O)(=O)c1cccnc1)C2` (stereo unspecified) [Sodium; {2-[(pyridine-3-sulfonylamino)-methyl]-indan-5-yl}-acetate], for which the half-maximal inhibitory concentration (IC50) was above 100000 nM.
`CCCCCS(=O)(=O)NCC1Cc2ccc(CC(=O)O)cc2C1` (stereo unspecified) [Sodium; {2-[(pentane-1-sulfonylamino)-methyl]-indan-5-yl}-acetate] gave a half-inhibitory concentration (IC50) of 77600 nM.
`O=C(O)c1ccc2c(c1)CC(CCCCNS(=O)(=O)c1ccc(Cl)cc1)C2` (stereo unspecified) [Sodium; 2-[4-(4-chloro-benzenesulfonylamino)-butyl]-indan-5-carboxylate] returned a 50% inhibitory concentration (IC50) of 100000 nM.
Take `O=C(O)Cc1ccc2c(c1)CC(CCCCNS(=O)(=O)c1ccc(Cl)cc1)C2` (stereo unspecified) [Sodium; {2-[4-(4-chloro-benzenesulfonylamino)-butyl]-indan-5-yl}-acetate]: the IC50 is above 100000 nM.
As for `O=C(O)Cc1ccc2c(c1)CC(CNS(=O)(=O)c1ccc3ccccc3c1)C2` (stereo unspecified) [Sodium; {2-[(naphthalene-2-sulfonylamino)-methyl]-indan-5-yl}-acetate], the figure is 950 nM; as for `O=C(O)Cc1ccc2c(c1)CC(CNS(=O)(=O)c1ccccc1)C2` (stereo unspecified) [Sodium; [2-(benzenesulfonylamino-methyl)-indan-5-yl]-acetate], 1020 nM.
Compound `O=C(O)CCCc1ccc2c(c1)CC(CNS(=O)(=O)c1ccc(Cl)cc1)C2` (stereo unspecified) [Sodium; 4-{2-[(4-chloro-benzenesulfonylamino)-methyl]-indan-5-yl}-butyrate] gave an IC50 of 1340 nM.
`O=C(O)CCCCc1ccc2c(c1)CC(CNS(=O)(=O)c1ccc(Cl)cc1)C2` (stereo unspecified) [Sodium; 5-{2-[(4-chloro-benzenesulfonylamino)-methyl]-indan-5-yl}-pentanoate] yielded an IC50 of 2880 nM.
`O=C(O)Cc1ccc2c(c1)CC(CNS(=O)(=O)c1ccc(Cl)cc1)C2` (stereo unspecified) [Sodium; {2-[(4-chloro-benzenesulfonylamino)-methyl]-indan-5-yl}-acetate] gave a concentration for half-maximal inhibition (IC50) of 360 nM.

Usually IC50 stands for the concentration needed to halve the response being measured. Read a low IC50 as higher potency.
